In assay [1] the target is Serine/threonine-protein phosphatase PP1-alpha catalytic subunit (Homo sapiens, UniProt P62136). Description: inhibition of protein phosphatase 1 activity – biochemical, fluorescence, dose response (AID 2403).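 Also: phosphatase turnover of OMFP into fluorescent 3-O-methylfluorescein.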
In assay [2] the target is Guanyl-specific ribonuclease T1 (Aspergillus oryzae (strain ATCC 42149 / RIB 40), UniProt P00651). Description: inhibition of ribonuclease T1 activity – biochemical, fluorescence polarization, 1536-well, counter-screen for TPT1 inhibitor project, dose response (AID 2167).
Assay [3] concerns the target T1, Serine/threonine-protein phosphatase (Homo sapiens, UniProt Q9BPW0).
T1 sequence (Q9BPW0 whole entry): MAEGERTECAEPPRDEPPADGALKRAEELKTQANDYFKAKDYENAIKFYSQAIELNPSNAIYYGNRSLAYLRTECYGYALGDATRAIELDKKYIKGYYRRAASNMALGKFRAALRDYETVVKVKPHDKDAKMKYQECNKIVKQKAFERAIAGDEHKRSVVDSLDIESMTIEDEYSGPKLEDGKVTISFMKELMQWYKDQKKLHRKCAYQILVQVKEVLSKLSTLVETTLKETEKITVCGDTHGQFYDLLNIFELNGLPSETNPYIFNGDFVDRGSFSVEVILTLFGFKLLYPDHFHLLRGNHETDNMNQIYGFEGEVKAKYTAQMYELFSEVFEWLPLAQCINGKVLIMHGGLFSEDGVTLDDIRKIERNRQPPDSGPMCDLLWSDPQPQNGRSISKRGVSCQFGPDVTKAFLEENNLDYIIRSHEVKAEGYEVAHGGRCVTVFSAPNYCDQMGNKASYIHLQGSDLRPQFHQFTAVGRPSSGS
Description: Counterscreen for inhibitors of PP1: fluorescence-based biochemical high throughput dose response assay to identify inhibitors of Protein Phosphatase 5 (PP5). [Related pubchem assays: 2034 (Summary (PP5 inhibitors)), 1987 (PP5 inhibitors in singlate), 2235 (PP1 inhibitors in singlate)]. On the technique in general: Counterscreens check selectivity or assay interference.

The target of assay [4] is T2, Tyrosine-protein phosphatase non-receptor type 7 (Homo sapiens, UniProt P35236).
T2 sequence (P35236 whole entry): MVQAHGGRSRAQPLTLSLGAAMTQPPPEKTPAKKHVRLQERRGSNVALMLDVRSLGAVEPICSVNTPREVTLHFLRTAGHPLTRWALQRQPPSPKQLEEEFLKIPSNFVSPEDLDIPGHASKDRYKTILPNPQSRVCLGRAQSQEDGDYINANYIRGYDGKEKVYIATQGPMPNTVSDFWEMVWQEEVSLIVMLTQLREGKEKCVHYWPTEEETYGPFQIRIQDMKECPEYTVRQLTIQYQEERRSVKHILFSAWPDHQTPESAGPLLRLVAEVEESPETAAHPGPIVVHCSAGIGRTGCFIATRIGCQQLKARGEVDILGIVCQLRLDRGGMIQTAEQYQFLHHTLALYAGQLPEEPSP
The assay is described as follows: HTS HePTP Fluorescent Assay using OMFP substrate for In Vitro dose response studies. [Related pubchem assays (depositor defined):AID1059, AID1077, AID1784, AID2068, AID2085, AID435032, AID521]. In kind it is functional.

The next assay has as its target Prothrombin (Bos taurus, UniProt P00735). The assay is described as follows: thrombin protease inhibitors – biochemical, fluorescence polarization, uHTS hits, dose response (AID 602369). It is filed as functional. (Polarisation of emitted light reports the rotation of a fluorescent probe.)
Assay [5] deals with 72 kDa type IV collagenase (Homo sapiens, UniProt P08253). The assay is described as follows: Dose Response validation of uHTS RPN11 inhibitor hits using a MMP-2 Fluorescence assay. In kind it is functional.
Assay [6] addresses Peroxisome proliferator-activated receptor gamma/Nuclear receptor corepressor 2 (Homo sapiens, UniProt P37231+Q9Y618). The assay is described as follows: Counterscreen for NR2E3 inverse agonists: TR-FRET-based biochemical high throughput dose response assay to identify inverse agonists of the interaction between peroxisome proliferator-activated receptor gamma (PPARg) and nuclear receptor co-repressor 2 (NCOR2). It is filed as functional.

The target in assay [7] is 26S proteasome non-ATPase regulatory subunit 14 (Homo sapiens, UniProt O00487). Description: inhibition of proteasome subunit RPN11 – biochemical, fluorescence polarization, uHTS hits, confirmation (AID 602368). In kind it is functional.
Assay [8] deals with T3, Tyrosine-protein phosphatase non-receptor type 22 (Homo sapiens, UniProt Q9Y2R2).
T3 sequence (Q9Y2R2 whole entry): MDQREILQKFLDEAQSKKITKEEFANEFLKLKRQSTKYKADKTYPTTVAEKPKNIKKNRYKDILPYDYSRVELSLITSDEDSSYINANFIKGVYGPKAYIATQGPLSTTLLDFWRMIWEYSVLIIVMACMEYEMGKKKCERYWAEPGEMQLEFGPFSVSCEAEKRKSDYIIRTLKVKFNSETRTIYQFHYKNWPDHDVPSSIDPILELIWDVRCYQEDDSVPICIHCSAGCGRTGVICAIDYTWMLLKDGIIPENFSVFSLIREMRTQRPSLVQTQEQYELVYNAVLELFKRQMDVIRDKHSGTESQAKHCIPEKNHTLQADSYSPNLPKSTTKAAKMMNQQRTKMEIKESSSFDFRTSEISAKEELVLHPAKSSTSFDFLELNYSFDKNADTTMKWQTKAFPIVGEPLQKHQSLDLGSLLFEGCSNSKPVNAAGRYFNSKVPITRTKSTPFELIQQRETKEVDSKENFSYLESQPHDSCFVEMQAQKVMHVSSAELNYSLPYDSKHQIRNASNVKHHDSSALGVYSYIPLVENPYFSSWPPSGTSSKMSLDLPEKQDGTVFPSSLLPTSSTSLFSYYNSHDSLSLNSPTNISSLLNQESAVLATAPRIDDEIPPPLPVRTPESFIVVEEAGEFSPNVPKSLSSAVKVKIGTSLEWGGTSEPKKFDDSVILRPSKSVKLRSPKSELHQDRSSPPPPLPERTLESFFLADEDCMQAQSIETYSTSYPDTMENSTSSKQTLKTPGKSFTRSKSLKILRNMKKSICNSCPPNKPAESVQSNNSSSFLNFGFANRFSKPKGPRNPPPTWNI
Description: PTPN22 lymphoid phosphatase activity blockers – biochemical, fluorescence intensity, uHTS (AID 1779).

The target in assay [9] is Likely tRNA 2'-phosphotransferase (Candida albicans (strain SC5314 / ATCC MYA-2876) (Yeast), UniProt Q5A7N4). Description: inhibition of Candida TPT1 enzyme activity – biochemical, fluorescence polarization, dose response (AID 2160).
The target in a further assay is Major prion protein (Homo sapiens, UniProt P04156). It is filed as functional, cell-based.
Assay [10] concerns the target T3, Tyrosine-protein phosphatase non-receptor type 22. It is filed as functional.
For assay [11] the target is unchanged. In kind it is functional. This is another data set of the same source.
Assay [12] has as its target T2, Tyrosine-protein phosphatase non-receptor type 7. It is filed as functional.
Assay [13] addresses T3, Tyrosine-protein phosphatase non-receptor type 22. Description: LYP1 Fluorescent Assay using OMFP substrate for In Vitro dose response studies. [Related pubchem assays (depositor defined):AID1779, AID1784, AID435024].
The target in assay [14] is Photoreceptor-specific nuclear receptor (Homo sapiens, UniProt Q9Y5X4). Description: ligands suppressing NR2E3 nuclear receptor activity – biochemical, TR-FRET, dose response (AID 463256). It is filed as functional. In general terms: TR-FRET usually uses a lanthanide donor and a delayed reading to cut background.
For assay [15], the target named is T4, Cannabinoid receptor 2 (Homo sapiens, UniProt P34972). Description: SAR analysis of antagonists of the Cannabinoid Receptor 2 using an Image-Based Assay - Set 2. [Related pubchem assays (depositor defined):AID1961, AID1965]. It is filed as functional.
The target of assay [16] is T4, Cannabinoid receptor 2. The assay is described as follows: SAR analysis of agonists of the Cannabinoid Receptor 2 using an Image-Based Assay - Set 2. [Related pubchem assays (depositor defined):AID1961, AID1965]. It is filed as functional.
Assay [17] concerns the target T5, G-protein coupled receptor 55 (Homo sapiens, UniProt Q9Y2T6). The assay is described as follows: selective activators of receptor GPR55 – imaging, U2OS cells, beta-arrestin-GFP redistribution, primary screen (AID 1961). It is filed as functional.
For assay [18], the target named is T5, G-protein coupled receptor 55. The assay is described as follows: SAR analysis of selective Agonists of GPR55 using an Image-Based Assay. [Related pubchem assays (depositor defined):AID1961, AID1965]. It is filed as functional.
In assay [19] the target is T6, Cannabinoid receptor 1 (Homo sapiens, UniProt P21554). Description: SAR analysis of antagonists of the Cannabinoid Receptor 1 using an Image-Based Assay. [Related pubchem assays (depositor defined):AID1961, AID1965]. It is filed as functional.
Assay [20] addresses T4, Cannabinoid receptor 2. Description: SAR analysis of agonists of the Cannabinoid Receptor 2 using an Image-Based Assay. [Related pubchem assays (depositor defined):AID2013, AID2026]. It is filed as functional.
For assay [21], the target named is T6, Cannabinoid receptor 1. Description: SAR analysis of agonists of the Cannabinoid Receptor 1 using an Image-Based Assay - Set 2. [Related pubchem assays (depositor defined):AID2013, AID2026]. In kind it is functional.
For assay [22], the target named is T5, G-protein coupled receptor 55. The assay is described as follows: inhibition of LPI-stimulated GPR55 beta-arrestin translocation – imaging, U2OS, beta-arrestin-GFP, LPI agonist, primary screen (AID 2013).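 Also: antagonist potency measured as reduced agonist-driven arrestin aggregation.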 It is filed as functional.
The target of assay [23] is T7, G-protein coupled receptor 35 (Homo sapiens, UniProt Q9HC97). Description: SAR analysis of Agonists of the GPR35 Receptor using an Image-Based Assay - Set 2. [Related pubchem assays (depositor defined):AID2013, AID2026]. It is filed as functional.
The target of assay [24] is T6, Cannabinoid receptor 1. Description: SAR analysis of antagonists of the Cannabinoid Receptor 1 using an Image-Based Assay - Set 2. [Related pubchem assays (depositor defined):AID2013, AID2026]. In kind it is functional.
For assay [25], the target named is T7, G-protein coupled receptor 35. The assay is described as follows: SAR analysis of Antagonists of the GPR35 Receptor using an Image-Based Assay - Set 3. [Related pubchem assays (depositor defined):AID2013, AID2026]. It is filed as functional.
Assay [26] deals with T8, Heat shock factor protein 1 (Mus musculus, UniProt P38532).
T8 sequence (P38532 whole entry): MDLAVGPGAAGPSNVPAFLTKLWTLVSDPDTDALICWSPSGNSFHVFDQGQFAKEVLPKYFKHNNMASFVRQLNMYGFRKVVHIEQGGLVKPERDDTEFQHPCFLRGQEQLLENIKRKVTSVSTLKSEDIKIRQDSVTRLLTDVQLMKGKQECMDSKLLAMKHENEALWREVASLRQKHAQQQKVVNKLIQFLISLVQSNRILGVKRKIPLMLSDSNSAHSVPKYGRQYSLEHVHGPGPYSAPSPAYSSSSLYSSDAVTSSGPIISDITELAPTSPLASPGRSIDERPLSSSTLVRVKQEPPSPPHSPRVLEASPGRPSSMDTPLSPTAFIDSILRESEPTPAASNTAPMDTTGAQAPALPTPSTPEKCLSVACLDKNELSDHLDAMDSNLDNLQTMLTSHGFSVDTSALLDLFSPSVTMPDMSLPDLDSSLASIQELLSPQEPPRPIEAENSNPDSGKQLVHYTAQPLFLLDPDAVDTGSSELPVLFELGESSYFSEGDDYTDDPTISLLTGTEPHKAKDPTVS
Description: decrease of HSF1-responsive luciferase luminescence – cell-based, NIH3T3, dose retest, confirmation (AID 2382).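 Also: NIH3T3 fibroblasts with HSF1-driven luciferase reporter stressed by proteasome inhibitor MG132; luminescence from HSF1-driven luciferase expression after 8 hours of MG132 stress.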 In kind it is functional.

Assay [27] has as its target T4, Cannabinoid receptor 2. The assay is described as follows: SAR analysis of antagonists of the Cannabinoid Receptor 2 using an Image-Based Assay. [Related pubchem assays (depositor defined):AID2013, AID2026]. It is filed as functional.
The target of assay [28] is T5, G-protein coupled receptor 55. The assay is described as follows: blockade of LPI-induced GPR55 arrestin translocation – imaging, U2OS, beta-arrestin-GFP, LPI agonist, set 2, SAR follow-up (AID 2820). In kind it is functional.

Calls of active or inactive are those of the source.

T6 sequence (P21554 whole entry): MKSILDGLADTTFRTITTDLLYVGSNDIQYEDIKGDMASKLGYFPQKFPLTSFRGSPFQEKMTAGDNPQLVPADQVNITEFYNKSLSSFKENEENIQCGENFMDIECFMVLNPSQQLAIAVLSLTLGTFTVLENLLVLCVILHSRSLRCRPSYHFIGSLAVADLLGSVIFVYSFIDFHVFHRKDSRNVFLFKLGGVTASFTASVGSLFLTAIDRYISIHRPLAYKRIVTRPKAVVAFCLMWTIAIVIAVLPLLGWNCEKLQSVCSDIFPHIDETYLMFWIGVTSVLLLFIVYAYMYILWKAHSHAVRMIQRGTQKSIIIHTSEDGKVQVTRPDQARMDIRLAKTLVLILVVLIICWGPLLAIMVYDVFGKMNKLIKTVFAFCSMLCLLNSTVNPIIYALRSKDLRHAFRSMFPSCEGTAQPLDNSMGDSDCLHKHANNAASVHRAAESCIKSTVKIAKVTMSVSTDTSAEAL
T4 sequence (P34972 whole entry): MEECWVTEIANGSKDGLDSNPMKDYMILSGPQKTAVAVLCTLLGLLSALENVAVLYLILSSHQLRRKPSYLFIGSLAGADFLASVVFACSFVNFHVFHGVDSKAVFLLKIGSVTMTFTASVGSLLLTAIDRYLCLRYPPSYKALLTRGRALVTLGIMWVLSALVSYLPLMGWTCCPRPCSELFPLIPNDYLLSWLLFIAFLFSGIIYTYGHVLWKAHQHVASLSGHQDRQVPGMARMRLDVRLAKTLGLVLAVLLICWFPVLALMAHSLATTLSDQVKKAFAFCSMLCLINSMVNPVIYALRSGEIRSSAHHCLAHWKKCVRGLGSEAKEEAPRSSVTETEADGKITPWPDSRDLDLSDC
T5 sequence (Q9Y2T6 whole entry): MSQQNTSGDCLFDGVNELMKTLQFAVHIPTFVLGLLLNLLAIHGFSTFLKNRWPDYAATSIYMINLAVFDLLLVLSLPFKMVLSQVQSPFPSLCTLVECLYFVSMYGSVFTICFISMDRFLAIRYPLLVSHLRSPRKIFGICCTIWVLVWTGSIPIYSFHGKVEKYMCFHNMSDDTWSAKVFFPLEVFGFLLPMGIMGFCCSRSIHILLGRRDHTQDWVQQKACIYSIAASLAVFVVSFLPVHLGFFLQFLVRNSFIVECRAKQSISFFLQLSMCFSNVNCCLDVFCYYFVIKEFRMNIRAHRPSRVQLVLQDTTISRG
T7 sequence (Q9HC97 whole entry): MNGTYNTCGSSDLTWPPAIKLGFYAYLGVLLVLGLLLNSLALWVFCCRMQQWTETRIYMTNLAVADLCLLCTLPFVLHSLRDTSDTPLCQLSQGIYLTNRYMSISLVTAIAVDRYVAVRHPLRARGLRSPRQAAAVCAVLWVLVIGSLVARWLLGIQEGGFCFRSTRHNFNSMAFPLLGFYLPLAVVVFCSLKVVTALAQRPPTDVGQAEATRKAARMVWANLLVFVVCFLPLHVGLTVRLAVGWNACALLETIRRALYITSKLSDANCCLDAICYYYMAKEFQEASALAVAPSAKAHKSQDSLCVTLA
Sequence of Peroxisome proliferator-activated receptor gamma/Nuclear receptor corepressor 2 (P37231 whole entry): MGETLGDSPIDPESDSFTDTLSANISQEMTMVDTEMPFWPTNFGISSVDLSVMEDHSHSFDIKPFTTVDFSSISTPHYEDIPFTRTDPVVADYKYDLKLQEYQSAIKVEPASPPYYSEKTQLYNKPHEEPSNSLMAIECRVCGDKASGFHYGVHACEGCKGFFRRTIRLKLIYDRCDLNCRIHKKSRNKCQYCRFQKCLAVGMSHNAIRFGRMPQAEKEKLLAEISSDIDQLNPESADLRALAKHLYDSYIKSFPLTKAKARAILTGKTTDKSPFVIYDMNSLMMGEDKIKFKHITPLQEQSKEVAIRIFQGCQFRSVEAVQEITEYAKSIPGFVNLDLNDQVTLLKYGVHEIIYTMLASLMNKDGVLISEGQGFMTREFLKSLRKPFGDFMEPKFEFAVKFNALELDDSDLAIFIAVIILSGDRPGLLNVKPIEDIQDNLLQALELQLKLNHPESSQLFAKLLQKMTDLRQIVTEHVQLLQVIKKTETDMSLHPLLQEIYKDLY
Sequence of Peroxisome proliferator-activated receptor gamma/Nuclear receptor corepressor 2 (Q9Y618 whole entry): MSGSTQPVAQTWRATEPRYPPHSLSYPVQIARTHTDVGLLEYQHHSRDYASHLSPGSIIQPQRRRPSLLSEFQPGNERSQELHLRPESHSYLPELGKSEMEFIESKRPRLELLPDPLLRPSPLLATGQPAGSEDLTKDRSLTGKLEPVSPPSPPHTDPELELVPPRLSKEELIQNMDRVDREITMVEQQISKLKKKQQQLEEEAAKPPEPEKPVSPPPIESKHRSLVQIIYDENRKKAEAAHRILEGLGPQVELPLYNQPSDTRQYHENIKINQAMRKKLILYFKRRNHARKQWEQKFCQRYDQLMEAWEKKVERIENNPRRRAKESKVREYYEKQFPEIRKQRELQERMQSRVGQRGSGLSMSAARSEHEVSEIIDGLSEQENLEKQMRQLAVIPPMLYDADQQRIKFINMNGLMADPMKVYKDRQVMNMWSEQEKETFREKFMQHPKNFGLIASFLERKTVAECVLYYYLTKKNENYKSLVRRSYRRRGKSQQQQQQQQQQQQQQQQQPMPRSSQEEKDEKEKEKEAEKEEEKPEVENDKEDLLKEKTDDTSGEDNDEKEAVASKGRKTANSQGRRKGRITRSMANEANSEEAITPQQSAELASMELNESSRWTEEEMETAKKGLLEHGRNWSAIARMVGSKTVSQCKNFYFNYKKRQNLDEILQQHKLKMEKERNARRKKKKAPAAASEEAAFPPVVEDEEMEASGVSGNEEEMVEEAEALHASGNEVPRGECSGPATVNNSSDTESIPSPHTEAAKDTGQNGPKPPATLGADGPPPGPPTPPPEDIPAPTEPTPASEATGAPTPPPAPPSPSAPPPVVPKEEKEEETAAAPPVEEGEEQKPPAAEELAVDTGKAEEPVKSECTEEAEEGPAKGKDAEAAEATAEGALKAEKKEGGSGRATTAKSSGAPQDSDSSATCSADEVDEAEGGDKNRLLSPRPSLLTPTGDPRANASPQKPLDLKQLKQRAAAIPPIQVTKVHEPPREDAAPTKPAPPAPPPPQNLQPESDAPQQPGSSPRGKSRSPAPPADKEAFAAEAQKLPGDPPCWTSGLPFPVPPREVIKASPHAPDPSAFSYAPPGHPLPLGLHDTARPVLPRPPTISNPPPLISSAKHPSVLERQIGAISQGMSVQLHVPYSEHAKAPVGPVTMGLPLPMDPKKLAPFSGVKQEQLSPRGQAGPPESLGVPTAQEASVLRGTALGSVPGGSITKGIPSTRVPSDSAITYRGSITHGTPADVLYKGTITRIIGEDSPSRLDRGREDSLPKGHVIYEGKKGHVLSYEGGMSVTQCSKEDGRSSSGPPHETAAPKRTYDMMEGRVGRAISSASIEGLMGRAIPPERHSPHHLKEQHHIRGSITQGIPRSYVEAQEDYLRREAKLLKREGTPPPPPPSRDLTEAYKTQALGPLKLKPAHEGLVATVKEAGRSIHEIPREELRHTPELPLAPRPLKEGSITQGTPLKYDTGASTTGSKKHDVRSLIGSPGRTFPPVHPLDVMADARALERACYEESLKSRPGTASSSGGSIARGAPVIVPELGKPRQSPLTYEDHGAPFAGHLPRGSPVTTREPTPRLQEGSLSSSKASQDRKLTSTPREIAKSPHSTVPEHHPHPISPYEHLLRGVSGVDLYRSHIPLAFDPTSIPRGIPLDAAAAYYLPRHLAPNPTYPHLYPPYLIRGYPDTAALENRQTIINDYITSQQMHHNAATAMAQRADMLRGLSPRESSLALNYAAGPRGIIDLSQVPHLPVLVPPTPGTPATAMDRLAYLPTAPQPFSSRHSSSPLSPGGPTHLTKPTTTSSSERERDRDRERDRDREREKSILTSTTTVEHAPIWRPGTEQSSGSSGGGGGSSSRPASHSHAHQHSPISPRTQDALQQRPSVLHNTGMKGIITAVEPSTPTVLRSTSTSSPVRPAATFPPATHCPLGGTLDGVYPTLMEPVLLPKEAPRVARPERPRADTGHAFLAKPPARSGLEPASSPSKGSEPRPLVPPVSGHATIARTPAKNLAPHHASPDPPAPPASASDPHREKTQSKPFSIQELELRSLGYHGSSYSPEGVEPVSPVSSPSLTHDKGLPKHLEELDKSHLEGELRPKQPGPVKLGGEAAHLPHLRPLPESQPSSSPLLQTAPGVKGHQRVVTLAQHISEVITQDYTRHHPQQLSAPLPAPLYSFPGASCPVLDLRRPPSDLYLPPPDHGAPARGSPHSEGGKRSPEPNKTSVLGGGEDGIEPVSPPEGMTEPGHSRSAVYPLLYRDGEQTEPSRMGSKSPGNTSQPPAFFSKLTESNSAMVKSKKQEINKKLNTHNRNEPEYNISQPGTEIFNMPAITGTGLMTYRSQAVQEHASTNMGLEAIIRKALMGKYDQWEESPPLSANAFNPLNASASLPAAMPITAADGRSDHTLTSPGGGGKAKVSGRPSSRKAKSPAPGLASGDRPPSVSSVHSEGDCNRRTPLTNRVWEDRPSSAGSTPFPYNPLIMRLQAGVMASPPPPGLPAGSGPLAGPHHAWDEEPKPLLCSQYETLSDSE
Sequence of Serine/threonine-protein phosphatase PP1-alpha catalytic subunit (P62136 whole entry): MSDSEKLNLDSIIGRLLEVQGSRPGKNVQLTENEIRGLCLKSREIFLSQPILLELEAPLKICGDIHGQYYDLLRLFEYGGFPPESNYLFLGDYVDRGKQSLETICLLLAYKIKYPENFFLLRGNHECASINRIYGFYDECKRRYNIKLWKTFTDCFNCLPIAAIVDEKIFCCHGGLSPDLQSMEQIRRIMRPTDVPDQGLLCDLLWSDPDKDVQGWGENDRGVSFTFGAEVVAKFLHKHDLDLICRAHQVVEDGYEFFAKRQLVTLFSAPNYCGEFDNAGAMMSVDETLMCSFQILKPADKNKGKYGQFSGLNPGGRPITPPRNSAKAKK
Sequence of Likely tRNA 2'-phosphotransferase (Q5A7N4 whole entry): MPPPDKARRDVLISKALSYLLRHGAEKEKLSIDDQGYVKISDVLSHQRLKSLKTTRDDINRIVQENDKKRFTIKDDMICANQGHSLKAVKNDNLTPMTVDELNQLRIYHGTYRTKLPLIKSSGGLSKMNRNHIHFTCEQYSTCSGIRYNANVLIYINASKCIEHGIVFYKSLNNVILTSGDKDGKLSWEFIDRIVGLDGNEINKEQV

As a reminder, the IC50 is the point on the concentration scale where inhibition reaches its midpoint. For the molecule `COc1ccc(Cl)cc1C(=O)Nc1cccc(-c2ccc3nncn3n2)c1`, the IC50 in assay [1] was 6.56 µM (active); in assay [2], 7.18 µM (active); in [3], > 67 µM (not active); in assay [4], 37.9 µM (active); on Prothrombin, 30.2 µM (active); in assay [5], 8.37 µM (active). For the same molecule, the half-inhibitory concentration (IC50) was 5.06 µM (active) in assay [6]; 12 µM (active) in [7]; 50.8 µM (active) in assay [8]; 5.93 µM (active) in [9]; 9.03 µM (active) on Major prion protein; > 138 µM (inactive) in “cells”. Also, the IC50 in assay [10] was 16 µM (active); in assay [11], 38.5 µM (active); in [12], 48.7 µM (active); in [13], > 99 µM (inactive); in assay [14] it was 2.86 µM (active).
For orientation: EC50 means the concentration at which the effect is half-maximal. With `CC(C)Oc1ccc(S(=O)(=O)N2CCOCC2)cc1NC(=O)c1ccc(N2CCCC2=O)cc1`, the IC50 on Cannabinoid receptor 2 [15] and on Cannabinoid receptor 1 [19] was > 32 µM (inactive) throughout. Besides, the figures for the EC50 (at Cannabinoid receptor 2 [16]; in assay [17]; in assay [18]) were > 32 µM (inactive), 0.969 µM (active) and 0.88 µM (active), respectively.
Take `CCN1C(=O)C(c2ccc(O)cc2)(c2ccc(O)cc2)c2ccccc21`: the EC50 at Cannabinoid receptor 2 [20] is > 32 µM (inactive); on Cannabinoid receptor 1 [21] it was > 32 µM (inactive); in assay [23], > 32 µM (inactive); in assay [26], > 195 µM (not active). Further, the IC50 is 1.74 µM (active) in [22]; 22 µM (inactive) at Cannabinoid receptor 1 [24]; > 32 µM (inactive) in assay [25]; > 32 µM (inactive) on Cannabinoid receptor 2 [27]; 0.506 µM (active) in [28].

(Values after ChEMBL document CHEMBL1201862, “PubChem BioAssay data set” (2004).)
